Source: patent US8916561B2, “Substituted quinoxaline compounds for the inhibition of PASK” (BioEnergenix, LLC, priority 2011, dated 2014)

Columns and labels:
PASK = biological target: T1, PASK (UniProt #Q96RG2; human recombinant N-terminal GST tagged construct, residues 879-1323) (Homo sapiens, UniProt Q96RG2); assay: PASK ATP Radiochemical Assay; format: biochemical; details: 33P-ATP radiochemical assay, Myelin Basic Protein substrate; read-out: IC50 Kinase Domain
T1 construct: human recombinant N-terminal GST tagged construct, residues 879-1323; GST (N); host or cells: insect cells
T1 sequence (Q96RG2 879-1323, stated change not applied): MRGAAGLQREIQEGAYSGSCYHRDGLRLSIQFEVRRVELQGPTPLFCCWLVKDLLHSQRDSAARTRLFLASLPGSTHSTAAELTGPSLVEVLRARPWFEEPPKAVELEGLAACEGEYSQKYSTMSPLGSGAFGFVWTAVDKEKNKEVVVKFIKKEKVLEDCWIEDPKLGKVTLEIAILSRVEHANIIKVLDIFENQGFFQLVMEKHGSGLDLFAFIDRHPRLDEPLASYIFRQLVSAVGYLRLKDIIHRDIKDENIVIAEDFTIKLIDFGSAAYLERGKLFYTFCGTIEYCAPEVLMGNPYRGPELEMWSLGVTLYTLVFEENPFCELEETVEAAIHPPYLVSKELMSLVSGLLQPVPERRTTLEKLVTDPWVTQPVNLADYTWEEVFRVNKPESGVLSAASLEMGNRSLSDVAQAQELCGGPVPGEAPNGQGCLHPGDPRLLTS
Description: Purified PASK (UniProt #Q96RG2; human recombinant N-terminal GST tagged construct, residues 879-1323) from insect cells (final concentration 5 nM) is added to freshly prepared Base Reaction Buffer containing 20 mM HEPES (pH 7.5), 10 mM MgCl2, 1 mM EGTA, 0.02% Brij35, 0.02 mg/ml BSA, 0.1 mM Na3VO4, 2 mM DTT, 1% DMSO and Myelin Basic Protein (20 μM final). Test compounds in DMSO are then added and the mixture, followed by delivery of ^33P-ATP (specific activity 0.01 μCi/μl final) to initiate the reaction. The kinase reaction is incubated for 120 min at room temperature. The entire reaction mixture is washed through onto a P81 Phosphocellulose paper and washed three times for 10 minutes in 75 mM phosphoric acid and once in methanol prior to drying and scintillation counting.

PASK (Invitrogen) = biological target: T2, PASK (Invitrogen) (Homo sapiens, UniProt Q96RG2); assay: PAS Kinase FRET Assay; format: biochemical; details: TR-FRET (665 nm/615 nm), Ulight-peptide substrate; read-out: IC50 Kinase Domain
T2 construct: IC50 Kinase Domain; purchased Invitrogen
T2 sequence (Q96RG2 999-1251 limits assumed): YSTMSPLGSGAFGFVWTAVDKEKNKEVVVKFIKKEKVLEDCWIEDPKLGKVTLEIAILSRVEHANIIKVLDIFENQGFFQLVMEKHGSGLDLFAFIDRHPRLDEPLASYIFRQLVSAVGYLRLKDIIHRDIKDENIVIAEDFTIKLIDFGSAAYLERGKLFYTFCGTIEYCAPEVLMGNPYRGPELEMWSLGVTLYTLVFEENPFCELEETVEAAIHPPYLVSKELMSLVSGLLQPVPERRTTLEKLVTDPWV
Excerpt: The aim of the FRET assay is to determine the inhibition potential of test compounds on targeted kinase. This assay platform provides a homogenous screening method for measuring kinase activity by quantitating the amount of phospho-substrate in solution following a kinase reaction.
In the presence of kinase and ATP, the Ulight-peptide is phosphorylated and captured by an anti-phospho-substrate antibody, which brings the Eu chelate donor and Ulight acceptor dyes into close proximity. Upon excitation at 340 nm, the Eu chelate transfers its energy to the Ulight dye, resulting in a fluorescent light emission at 665 nm.
Titration of kinase at 1 mM ATP was achieved via the following protocol. After making serial three-fold dilutions of PASK (Invitrogen) in reaction buffer across the plate; 5 μl of kinase dilution and 5 μl substrate/ATP mix were added to the wells of the white Optiplate-384 (PerkinElmer). The contents of the plate were incubated at RT for 1 h. The reaction was stopped by adding 5 μl of stop solution to each test well followed by mixing and incubation at RT for 10 minutes. 5 μl of detection mix (detection antibody diluted in detection butler) was added; the contents of the plate were mixed and then incubated in the dark for 1 hour at RT. The signal was recorded at TR-FRET mode (665 nm/615 nm), The results were graphed to calculate the EC50.
Titration of ATP at the EC50 concentration of kinase to determine ATP Km,app. was performed using the following method. After making serial dilutions of ATP (Invitrogen), 5 μl of ATP dilution and 5 μl substrate/kinase mix were added to the wells of the white Optiplate-384 (PerkinElmer). The contents of the plate were and incubated at RT for 1 h. The reaction was stopped by adding 5 μl of stop solution to each test well followed by mixing and incubation at RT for 10 minutes. 5 μl of detection mix (detection antibody diluted in detection buffer) was added; the contents of the plate were mixed and then incubated in the dark for 1 hour at RT. The signal was recorded at TR-FRET mode (665 nm/615 nm). The results were graphed to calculate the EC50 as the ATP Km,app.
Compound screening was done via the following method. 10 mM stock solution of test compound in DMSO was prepared by dissolving test compound in DMSO at RT for 1 hour, and then sonicating at 100% output for 8 minutes. If compound is not soluble under this condition, it was diluted to 3 mM. Kinase reaction buffer was prepared containing 10 mM MgCl2, 50 mM HEPES, 1 EGTA, 0.01% TWEEN-20, 2 mM WT. Serial dilutions of the test compounds were prepared at 4× final assay concentrations using Freedom EVO200® dispensing system as follows: 12×10^−5M, 4×10^−5 M, 1.33×10^−5M, 4.44×10^−6 M. 1.48×10^−6 M, 4.92×10^−7 M, 1.65×10^−7 M, […], 1.82×10^−8 M, 6.09×10^−9, 2.03×10^−9 M. Test compounds (2.5 μl at 4× the final assay concentration) was added to wells using Freedom EVO200® dispensing system. As a positive control, 2.5 μl of positive compound was added to assay wells, and 2.5 μl of DMSO to assay wells as vehicle control. Kinase solution was prepared in reaction buffer at 2× final assay concentration. Kinase solution (5 μl) was added to each well of the assay plate. The substrate and ATP solution was prepared in kinase reaction buffer at 4× final assay concentration. The kinase reaction was started by adding 2.5 μl of substrate+ATP mix solution to each well of the assay plate. The plate is mixed on a plate shaker; then covered and allowed to react for 2 hours in the dark at 25° C. without shaking. The reaction was stopped by adding 5 μl of stop solution to each test well followed by mixing and incubation at RT for 10 minutes in the dark. 5 μl of detection mix (detection antibody diluted in detection buffer) was added; the contents of the plate were mixed and then incubated in the dark for 1 hour at RT. The signal was recorded at TR-FRET mode (665 nm/615 nm).

hPASK [1] = biological target: T3, hPASK (Homo sapiens, UniProt Q96RG2); assay: Cell assay for hPASK activity, phospho-AKT substrate antibody; format: cell-based; design: expressed in transfected cells; host or cells: HEK293T; details: HEK293T cells transfected with V5-tagged PASK, phospho-AKT substrate antibody Western blot
Description: The assay applies the ability of PASK to autophoshorylate in vivo on the sequence recognized by phospho-Akt substrate antibody (110B7E, Cell Signaling). Cell line HEK293T is transfected with vector (pcDNA 3.1-PASK) expressing V5-tagged wilde-type of PASK. Transfected cells are then treated with putative inhibitors of PASK. Twenty-four hours post treatment cells are lysed and PASK is separated from cellular proteins by immunoprecipitation with V5-conjugated beads (Sigma). PASK is released from immunocomlexes, separated on the SDS-PAGE gel and transferred on nitrocellulose membrane. Fraction of PASK phosphorylated on phospho-AKT Substrate site(s) is determined by probing with phospho-AKT antibody and normalized to total PASK level present in the same immunoprecipitates. We have shown the correlation between phosphorylation of phospho-AKT Substrate sequence and inhibition of PASK activity in vivo.
HEK293T cells are maintained and propagated in 10 cm dish in 10 ml of DMEM/10% FBS, split and re-seeded in 6 well plate (10^6 cells/well) in 2 ml of DMEM/10% FBS. Cells are transfected 18 hours post plating with lug of construct expressing wild-type of hPASK using lipofectamine 2000 according to the manufacturers protocol (Invitrogen). Cells expressing PASK are treated either with DMSO or PASK inhibitors. […] Intensities of the bands are quantitated and data normalized.
Target sequence in this assay (Q96RG2 whole entry): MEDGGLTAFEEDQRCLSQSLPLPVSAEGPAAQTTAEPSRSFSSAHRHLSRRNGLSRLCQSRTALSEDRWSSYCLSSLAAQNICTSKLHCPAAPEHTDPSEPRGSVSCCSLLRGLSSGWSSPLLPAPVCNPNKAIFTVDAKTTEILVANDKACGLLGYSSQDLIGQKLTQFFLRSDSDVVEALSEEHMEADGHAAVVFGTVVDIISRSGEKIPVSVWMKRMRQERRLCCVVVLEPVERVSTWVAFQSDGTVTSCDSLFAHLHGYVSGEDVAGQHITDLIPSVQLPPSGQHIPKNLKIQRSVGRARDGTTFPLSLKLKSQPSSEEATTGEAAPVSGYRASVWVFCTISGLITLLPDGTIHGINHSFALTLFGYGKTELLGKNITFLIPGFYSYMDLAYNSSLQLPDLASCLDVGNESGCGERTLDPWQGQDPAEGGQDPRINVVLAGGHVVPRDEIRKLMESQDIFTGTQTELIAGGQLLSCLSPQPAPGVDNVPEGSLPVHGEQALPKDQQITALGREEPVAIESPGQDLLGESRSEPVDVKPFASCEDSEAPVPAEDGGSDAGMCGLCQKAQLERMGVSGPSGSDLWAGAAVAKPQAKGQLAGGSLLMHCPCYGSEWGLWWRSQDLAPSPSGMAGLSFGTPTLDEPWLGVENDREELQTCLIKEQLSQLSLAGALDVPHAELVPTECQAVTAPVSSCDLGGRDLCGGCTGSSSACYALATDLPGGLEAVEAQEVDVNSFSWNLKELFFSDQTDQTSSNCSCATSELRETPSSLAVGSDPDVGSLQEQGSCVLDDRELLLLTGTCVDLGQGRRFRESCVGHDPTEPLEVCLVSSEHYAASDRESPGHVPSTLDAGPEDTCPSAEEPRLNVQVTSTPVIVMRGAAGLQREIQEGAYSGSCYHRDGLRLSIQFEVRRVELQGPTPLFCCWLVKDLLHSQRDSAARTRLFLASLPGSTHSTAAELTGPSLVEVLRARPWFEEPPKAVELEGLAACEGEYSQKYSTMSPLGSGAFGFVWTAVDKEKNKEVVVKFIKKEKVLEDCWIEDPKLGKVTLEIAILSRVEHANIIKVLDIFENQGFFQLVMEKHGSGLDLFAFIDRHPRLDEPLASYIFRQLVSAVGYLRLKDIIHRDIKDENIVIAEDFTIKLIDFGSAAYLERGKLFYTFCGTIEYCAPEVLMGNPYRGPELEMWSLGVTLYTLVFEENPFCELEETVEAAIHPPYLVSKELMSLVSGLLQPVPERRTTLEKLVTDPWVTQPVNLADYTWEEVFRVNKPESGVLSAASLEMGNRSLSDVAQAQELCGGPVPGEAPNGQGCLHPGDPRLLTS

hPASK [2] = biological target: T3, hPASK; assay: PAS Kinase Luminescence Assay (Kinase-Glo); format: biochemical; design: IC50 Kinase Domain; host or cells: insect cells; details: MBP substrate, read-out: IC50 Kinase Domain
Description: One assay for purified hPASK activity utilizes the Kinase-Glo Luminescent Kinase Assay (Promega), which quantifies the amount of ATP remaining in solution following kinase reaction. The assay is carried out in a 96-well plate format and is performed by adding a volume of Kinase-Glo Reagent (Promega, catalog #V3771) equal to the volume of solution in the well of a completed kinase reaction. Kinase-Glo reagent contains Luciferase and its substrate. After addition to a kinase reaction it allows to measure luminescence. The amount of ATP left in solution at the time of Kinase-Glo Plus addition is directly proportional to the luminescence that is measured in each well, and inversely correlated with kinase activity.
Purified hPASK from insect cells (0.02 μg) is added to a 50 μL reaction mix containing 40 mM HEPES (pH 7.0), 100 mM KCl, 5 mM MgCl2, 1 mM DTT and 1 μg of MBP protein. Inhibitory compounds are then added and the mixture is incubated for 10 min at 25° C. before adding 5 μL of ATP (at desired concentration). The reaction is allowed to proceed at 25° C. for 1 hour before adding 50 μL of Kinase-Glo reagent. The luminescence is measured as soon as 10 minutes after Kinase-Glo reagent is added.
Target sequence in this assay (Q96RG2 999-1251 limits assumed): as the sequence (Q96RG2 999-1251 limits assumed) above

Row | Compound | IC50 (PASK) [µM] | IC50 (PASK (Invitrogen)) [µM] | IC50 (hPASK [1]) [µM] | IC50 (hPASK [2]) [µM]
1 | CC(C)N(C)c1nc2cc(C(N)=O)ccc2nc1-c1ccc(F)cc1 [Example 1, 2-(4-Fluorophenyl)-3-(isopropyl(methyl)amino)quinoxaline-6-carboxamide] | ≤ 10 | ≤ 10 | ≤ 10 | –
2 | Cc1[nH]c2ccc(-c3nc4ccc(-c5nnn[nH]5)cc4nc3N(C)C(C)C)cc2c1C(=O)C(F)(F)F [Example 24, 2,2,2-Trifluoro-1-(5-(3-(isopropyl(methyl)amino)-6-(1H-tetrazol-5-yl)quinoxalin-2-yl)-2-methyl-1H-indol-3-yl)ethanone] | – | ≤ 10 | – | –
3 | Fc1ccc(-c2nc3ccc(-c4nnn[nH]4)cc3nc2-c2ccc(F)cc2)cc1 [Example 25, 2,3-Bis(4-fluorophenyl)-6-(1H-tetrazol-5-yl) quinoxaline] | ≤ 10 | – | – | –
4 | COc1ccc(-c2nc3ccc(-c4nnn[nH]4)cc3nc2-c2ccc(OC)cc2)cc1 [Example 26, 2,3-Bis(4-methoxyphenyl)-6-(1H-tetrazol-5-yl)quinoxaline] | ≤ 10 | ≤ 10 | – | –
5 | CCc1ccc(-c2nc3ccc(-c4nnn[nH]4)cc3nc2-c2ccc(CC)cc2)cc1 [Example 27, 2,3-Bis(4-ethylphenyl)-6-(1H-tetrazol-5-yl)quinoxaline] | ≤ 10 | – | – | –
6 | CC(C)N(C)c1nc2cc(-c3nn[nH]n3)ccc2nc1-c1ccc(F)cc1 [Example 28, 3-(4-Fluorophenyl)-N-isopropyl-N-methyl-7-(2H-tetrazol-5-yl)quinoxalin-2-amine] | ≤ 10 | ≤ 10 | – | –
7 | C[C@H]1CCCN1c1nc2cc(-c3nn[nH]n3)ccc2nc1-c1ccc(F)cc1 [Example 29, (S)-2-(4-Fluorophenyl)-3-(2-methylpyrrolidin-1-yl)-6-(2H-tetrazol-5-yl)quinoxaline] | ≤ 10 | ≤ 10 | – | –
8 | CC[C@@H](C)N(C)c1nc2cc(-c3nnn[nH]3)ccc2nc1-c1ccc(F)cc1 [Example 30, (R)—N-sec-Butyl-3-(4-fluorophenyl)-N-methyl-7-(1H-tetrazol-5-yl)quinoxalin-2-amine] | – | ≤ 10 | – | –
9 | CC(C)N(C)c1nc2cc(-c3nnn[nH]3)ccc2nc1-c1ccc2[nH]ncc2c1 [Example 31, 3-(1H-Indazol-5-yl)-N-methyl-N-(propan-2-yl)-7-(1H-tetrazol-5-yl)quinoxalin-2-amine] | – | ≤ 10 | – | –
10 | Cc1cc2cc(-c3nc4ccc(-c5nnn[nH]5)cc4nc3N(C)C(C)C)ccc2[nH]1 [Example 32, N-Isopropyl-N-methyl-3-(2-methyl-1H-indol-5-yl)-7-(1H-tetrazol-5-yl)quinoxalin-2-amine] | ≤ 10 | ≤ 10 | – | –
11 | CC(C)N(C)c1nc2cc(-c3nnn[nH]3)ccc2nc1-c1cc2cc(F)ccc2o1 [Example 33, 3-(5-Fluorobenzofuran-2-yl)-N-methyl-N-(propan-2-yl)-7-(1H-tetrazol-5-yl)quinoxalin-2-amine] | – | ≤ 10 | – | –
12 | COc1ccc(-c2nc3ccc(NS(C)(=O)=O)cc3nc2-c2ccc(OC)cc2)cc1 [Example 34, N-(2,3-Bis(4-methoxyphenyl)quinoxalin-6-yl)methanesulfonamide] | ≤ 10 | – | – | ≤ 10
13 | COc1ccc(-c2nc3ccc(S(N)(=O)=O)cc3nc2-c2ccc(OC)cc2)cc1 [Example 35, 2,3-Bis(4-methoxyphenyl)quinoxaline-6-sulfonamide] | – | – | – | ≤ 10
14 | CNS(=O)(=O)c1ccc2nc(-c3ccc(OC)cc3)c(-c3ccc(OC)cc3)nc2c1 [Example 36, 2,3-Bis(4-methoxyphenyl)-N-methylquinoxaline-6-sulfonamide] | – | – | – | > 10
15 | COc1ccc(-c2nc3ccc(S(=O)(=O)N4CCOCC4)cc3nc2-c2ccc(OC)cc2)cc1 [Example 37, 4-(2,3-Bis(4-methoxyphenyl)quinoxalin-6-ylsulfonyl)morpholine] | – | – | – | ≤ 10
16 | COc1ccc(-c2nc3ccc(S(=O)(=O)O)cc3nc2-c2ccc(OC)cc2)cc1 [Example 38, 2,3-Bis(4-methoxyphenyl)quinoxaline-6-sulfonic acid] | – | ≤ 10 | – | –
